Patent publication US20250268903A1, “RXFP1 AGONISTS” (BRISTOL-MYERS SQUIBB COMPANY, priority 2021, published 2025)

Biological target: T1, human RXFP1 (Homo sapiens, UniProt Q9HBX9)
T1 construct: expressed in transfected cells
T1 sequence (Q9HBX9 1-757): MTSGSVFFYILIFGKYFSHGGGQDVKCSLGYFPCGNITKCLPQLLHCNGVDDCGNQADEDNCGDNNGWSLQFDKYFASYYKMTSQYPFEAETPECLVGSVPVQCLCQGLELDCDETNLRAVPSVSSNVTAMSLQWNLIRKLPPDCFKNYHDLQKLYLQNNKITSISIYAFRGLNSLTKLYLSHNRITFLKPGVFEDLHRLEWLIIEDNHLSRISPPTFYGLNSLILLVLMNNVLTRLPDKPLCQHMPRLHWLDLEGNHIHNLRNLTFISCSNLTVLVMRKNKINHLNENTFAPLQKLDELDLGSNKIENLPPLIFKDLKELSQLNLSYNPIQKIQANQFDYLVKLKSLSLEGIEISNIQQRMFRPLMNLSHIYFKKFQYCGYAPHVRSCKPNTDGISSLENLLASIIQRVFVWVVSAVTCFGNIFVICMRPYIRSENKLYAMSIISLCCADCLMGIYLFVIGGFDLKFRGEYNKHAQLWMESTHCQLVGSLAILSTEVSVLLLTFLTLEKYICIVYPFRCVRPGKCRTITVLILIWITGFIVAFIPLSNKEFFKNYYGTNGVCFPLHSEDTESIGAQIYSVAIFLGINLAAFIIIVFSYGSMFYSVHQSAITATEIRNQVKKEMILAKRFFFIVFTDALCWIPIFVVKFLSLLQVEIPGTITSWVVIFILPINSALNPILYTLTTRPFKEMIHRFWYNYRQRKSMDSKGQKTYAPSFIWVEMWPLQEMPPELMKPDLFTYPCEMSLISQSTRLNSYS
Experiment: hRXFP1 HEK293 cAMP assay (HTRF)
Format: cell-based
Settings: HEK293 cells stably expressing human RXFP1, 30 min at room temperature
Outline: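 hRXFP1-HEK293 stable line; HBSS + Ca/Mg, 20 mM HEPES, 0.05% BSA, 0.5 mM IBMX; cpd 0.010 nM–50 μM, 2% DMSO; 30 min RT; lysis, HTRF cAMP detection; 4-PL fit.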

Compound	EC50 [µM]
COc1ccc(CCC(C)(C)O)cc1C(=O)N[C@H]1[C@@H](C(=O)NCC(C)(C)C)[C@H]2CC[C@@H]1/C2=C\C1CC1 [Example 271, (1R,2S,3R,4R,7Z)-7-(cyclopropylmethyl-idene)-N-(2,2-dimethylpropyl)-3-[5-(3-hydroxy-3-methylbutyl)-2-methoxybenzamido] bicyclo[2.2.1]heptane-2-carboxamide]	0.264
COc1ccc(C(C)(C)CCO)cc1C(=O)N[C@H]1[C@@H](C(=O)Nc2ccc(F)c(C(F)(F)F)c2)[C@H]2CC[C@@H]1/C2=C\C(F)(F)F [Example 272, (1R,2S,3R,4R,7Z)-N-[4-fluoro-3-(trifluoromethyl)phenyl]-3-[5-(4-hydroxy-2-methylbutan-2-yl)-2-methoxybenzamido]-7-(2,2,2-trifluoroethylidene) bicyclo[2.2.1]heptane-2-carboxamide]	0.422
COc1cc2c(cc1C(=O)N[C@H]1[C@@H](C(=O)Nc3ccc(F)c(C(F)(F)F)c3)[C@H]3CC[C@@H]1/C3=C\C(F)(F)F)CCC2 [Example 273, [(1R,2R,3S,4R,7Z)-3-{[4-fluoro~3-(trifluoromethyl)phenyl]carbamoyl}-7-(2,2,2-trifluoroethylidene)bicyclo[2.2.1]heptan-2-yl]-6-methoxy-2,3-dihydro-IH-indene-5-carboxamide]	3.44
COc1ccc([C@H]2C[C@H](O)C2)cc1C(=O)N[C@H]1[C@@H](C(=O)Nc2ccc(F)c(C(F)(F)F)c2)[C@H]2CC[C@@H]1/C2=C\C1CC1 [Example 277, (1R,2S,3R,4R,7Z)-7-(cyclopropylmethyl-idene)-N-[4-fluoro-3-(trifluoromethyl)phenyl]-3-{2-methoxy-5-[(1r,3r)-3-hydroxycyclobutyl]benzamido} bicyclo [2.2.1]heptane-2-carboxamide]	0.00725

Results, then the compound that gave them:

EC50 [µM]	Compound
0.367	COc1ccc(C(=O)N2CC3CCC(C2)O3)cc1C(=O)N[C@H]1[C@@H](C(=O)Nc2ccc(F)c(C(F)(F)F)c2)[C@H]2CC[C@@H]1/C2=C\C1CC1 [Example 259, (1R,2S,3R,4R,7Z)-7-(cyclopropylmethylidene)-N-[4-fluoro-3-(trifluoromethyl)phenyl]-3-(2-methoxy-5-{8-oxa-3-azabicyclo[3.2.1]octane-3-carbonyl}benzamido) bicyclo[2.2.1] heptane-2-carboxamide]
0.244	COc1ccc(C(C)(C)CCO)cc1C(=O)N[C@H]1[C@@H](C(=O)Nc2ccc(F)c(C(F)(F)F)c2)[C@H]2CC[C@@H]1/C2=C\C1CC1 [Example 269, (1R,2S,3R,4R,7Z)-7-(cyclopropyl-methylidene)-N-[4-fluoro-3-(trifluoromethyl)phenyl]-3-[5-(4-hydroxy-2-methylbutan-2-yl)-2-methoxybenzamido] bicyclo[2.2.1] heptane-2-carboxamide]
0.685	COc1ccc(CCCO)cc1C(=O)N[C@H]1[C@@H](C(=O)NCC(C)(C)C)[C@H]2CC[C@@H]1/C2=C\C1CC1 [Example 270, (1R,2S,3R,4R,7Z)-7-(cyclopropylmethyl-idene)-N-(2,2-dimethylpropyl)-3-[5-(3-hydroxypropyl)-2-methoxybenzamido] bicyclo[2.2.1]heptane-2-carboxamide]
0.0418	COc1ccc(C23CCC(C(C)(C)O)(CC2)CC3)cc1C(=O)N[C@H]1[C@@H](C(=O)Nc2ccc(F)c(C(F)(F)F)c2)[C@H]2CC[C@@H]1/C2=C\C1CC1 [Example 275, (1R,2S,3R,4R,7Z)-7-(cyclopropylmethyl-idene)-N-[4-fluoro-3-(trifluoromethyl)phenyl]-3-{5-[4-(2-hydroxypropan-2-yl)bicyclo[2.2.2]octan-1-yl]-2-methoxybenzamido} bicyclo[2.2.1]heptane-2-carboxamide]
